According to paper PMC9090415, “Discovery of small molecule inhibitors of Plasmodium falciparum apicoplast DNA polymerase” (Journal of Enzyme Inhibition and Medicinal Chemistry, 2022):

Molecular target: P. falciparum apicoplast DNA polymerase (Pf-apPOL) (Plasmodium falciparum, UniProt Q8ILY1)
Assay: Fluorescence-based high-throughput DNA polymerase assay (molecular beacon), primary screen and dose-response;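 for % inhibition ApPOL 90': test concentration in µM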;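 for % inhibition apPOL 180': test concentration in µM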
Type: biochemical
In short: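 Single-point screening used 10 µM compound with 20 nM polymerase, 20 nM hairpin substrate and 6 µM dNTPs for 90 min at 25 °C. Confirmatory titrations (2.5–80 µM) followed fluorescence at three times, and IC50 was derived from a fit including a cooperativity term n.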

Chain of P. falciparum apicoplast DNA polymerase (Pf-apPOL) (Q8ILY1 entry or part of it): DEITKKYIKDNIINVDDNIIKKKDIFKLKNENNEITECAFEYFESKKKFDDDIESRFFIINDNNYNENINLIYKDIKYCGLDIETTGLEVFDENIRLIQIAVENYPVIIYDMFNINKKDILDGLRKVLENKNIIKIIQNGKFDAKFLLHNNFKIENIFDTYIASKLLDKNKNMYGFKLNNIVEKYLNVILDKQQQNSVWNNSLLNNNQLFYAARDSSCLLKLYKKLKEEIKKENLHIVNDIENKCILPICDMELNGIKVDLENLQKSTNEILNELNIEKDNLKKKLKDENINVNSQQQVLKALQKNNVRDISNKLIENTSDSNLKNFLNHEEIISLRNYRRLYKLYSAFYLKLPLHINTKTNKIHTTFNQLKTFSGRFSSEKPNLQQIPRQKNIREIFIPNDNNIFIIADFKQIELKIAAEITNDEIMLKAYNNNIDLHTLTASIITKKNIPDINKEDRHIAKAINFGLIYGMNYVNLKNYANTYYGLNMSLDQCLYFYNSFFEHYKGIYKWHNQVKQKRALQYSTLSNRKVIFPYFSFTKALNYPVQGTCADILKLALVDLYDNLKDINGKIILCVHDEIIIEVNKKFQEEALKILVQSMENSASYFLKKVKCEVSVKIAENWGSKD

CCOC(=O)C(NCc1ccco1)(NC(=O)c1ccco1)C(F)(F)F (stereo not drawn) [KU0276119]
DNA Pol (186 hits, value of the hit list (primary screen); unit not given; 90 min, 10 µM): 69 | % inhibition Apo pol 10' (DRC-1; 10'; concentration 2.5): -0.8683% | % inhibition Apo pol 10' (DRC-1; 10'; concentration 5): 4.257% | % inhibition Apo pol 10' (DRC-1; 10'; concentration 10): 15.6994% | % inhibition Apo pol 10' (DRC-1; 10'; concentration 20): 30.4809% | % inhibition Apo pol 10' (DRC-1; 10'; concentration 40): 51.156% | % inhibition Apo pol 10' (DRC-1; 10'; concentration 80): 69.3233% | % inhibition Apol 90' (DRC-1; 90'; concentration 2.5): -1.328% | % inhibition Apol 90' (DRC-1; 90'; concentration 5): -2.247% | % inhibition Apol 90' (DRC-1; 90'; concentration 10): 3.449% | % inhibition Apol 90' (DRC-1; 90'; concentration 20): 14.6625% | % inhibition Apol 90' (DRC-1; 90'; concentration 40): 31.3437% | % inhibition Apol 90' (DRC-1; 90'; concentration 80): 52.4823% | % inhibition apPOL 180' (DRC-1; 180'; concentration 2.5): -2.149% | % inhibition apPOL 180' (DRC-1; 180'; concentration 5): -6.365% | % inhibition apPOL 180' (DRC-1; 180'; concentration 10): -5.1582% | % inhibition apPOL 180' (DRC-1; 180'; concentration 20): 2.395% | % inhibition apPOL 180' (DRC-1; 180'; concentration 40): 15.7005% | % inhibition apPOL 180' (DRC-1; 180'; concentration 80): 35.8359% | % inhibition Apo pol 5' (DRC-2, 5', concentration 2.5): 3% | % inhibition Apo pol 5' (DRC-2, 5', concentration 5): 8.49% | % inhibition Apo pol 5' (DRC-2, 5', concentration 10): 20% | % inhibition Apo pol 5' (DRC-2, 5', concentration 20): 31% | % inhibition Apo pol 5' (DRC-2, 5', concentration 40): 44% | % inhibition Apo pol 5' (DRC-2, 5', concentration 80): 52% | % inhibition Apol 40' (DRC-2, 40', concentration 2.5): 3% | % inhibition Apol 40' (DRC-2, 40', concentration 5): 5% | % inhibition Apol 40' (DRC-2, 40', concentration 10): 12% | % inhibition Apol 40' (DRC-2, 40', concentration 20): 24% | % inhibition Apol 40' (DRC-2, 40', concentration 40): 41% | % inhibition Apol 40' (DRC-2, 40', concentration 80): 57% | % inhibition ApPOL 90' (DRC-2, 90', concentration 2.5): 1.27% | % inhibition ApPOL 90' (DRC-2, 90', concentration 5): 0% | % inhibition ApPOL 90' (DRC-2, 90', concentration 10): 7% | % inhibition ApPOL 90' (DRC-2, 90', concentration 20): 17% | % inhibition ApPOL 90' (DRC-2, 90', concentration 40): 36% | % inhibition ApPOL 90' (DRC-2, 90', concentration 80): 54% | % inhibition apPOL 180' (DRC-2, 180', concentration 2.5): -2.49% | % inhibition apPOL 180' (DRC-2, 180', concentration 5): -7% | % inhibition apPOL 180' (DRC-2, 180', concentration 10): -2% | % inhibition apPOL 180' (DRC-2, 180', concentration 20): 2.7% | % inhibition apPOL 180' (DRC-2, 180', concentration 40): 21% | % inhibition apPOL 180' (DRC-2, 180', concentration 80): 45% | % inhibition Apo pol 5' (DRC-2; 5'; concentration 2.5): 3% | % inhibition Apol 40' (DRC-2; 40'; concentration 2.5): 3% | DNA Pol (primary screen value, 'DNA Pol' only; 90 min, 10 µM): 69

O=C(O)c1ccc(-c2nc3cc(-c4ccc5nc(-c6ccc(C(=O)O)cc6)[nH]c5c4)ccc3[nH]2)cc1 [Molecule 1, OC(=O)c1ccc(cc1)c1nc2c([nH]1)cc(cc2)c1ccc2c(c1)nc([nH]2)c1ccc(cc1)C(=O)O]
% inhibition Apo pol 10' (DRC-1; 10'; concentration 2.5): 4.605% | % inhibition Apo pol 10' (DRC-1; 10'; concentration 5): 47.5072% | % inhibition Apo pol 10' (DRC-1; 10'; concentration 10): 71.1755% | % inhibition Apo pol 10' (DRC-1; 10'; concentration 20): 72.8856% | % inhibition Apo pol 10' (DRC-1; 10'; concentration 40): 63.5867% | % inhibition Apo pol 10' (DRC-1; 10'; concentration 80): 67.7005% | % inhibition Apol 90' (DRC-1; 90'; concentration 2.5): 3.724% | % inhibition Apol 90' (DRC-1; 90'; concentration 5): 40.2973% | % inhibition Apol 90' (DRC-1; 90'; concentration 10): 67.3465% | % inhibition Apol 90' (DRC-1; 90'; concentration 20): 73.5196% | % inhibition Apol 90' (DRC-1; 90'; concentration 40): 66.9827% | % inhibition Apol 90' (DRC-1; 90'; concentration 80): 77.5146% | % inhibition apPOL 180' (DRC-1; 180'; concentration 2.5): 2.544% | % inhibition apPOL 180' (DRC-1; 180'; concentration 5): 30.2265% | % inhibition apPOL 180' (DRC-1; 180'; concentration 10): 61.3297% | % inhibition apPOL 180' (DRC-1; 180'; concentration 20): 73.7422% | % inhibition apPOL 180' (DRC-1; 180'; concentration 40): 70.4852% | % inhibition apPOL 180' (DRC-1; 180'; concentration 80): 81.7521% | % inhibition Apo pol 5' (DRC-2, 5', concentration 2.5 (unit not given)): 30% | % inhibition Apo pol 5' (DRC-2, 5', concentration 20 (unit not given)): 37% | % inhibition Apo pol 5' (DRC-2, 5', concentration 40 (unit not given)): 37% | % inhibition Apol 40' (DRC-2, 40', concentration 2.5 (unit not given)): 30% | % inhibition Apol 40' (DRC-2, 40', concentration 10 (unit not given)): 32% | % inhibition Apol 40' (DRC-2, 40', concentration 20 (unit not given)): 41% | % inhibition Apol 40' (DRC-2, 40', concentration 80 (unit not given)): 32% | % inhibition ApPOL 90' (DRC-2, 90', concentration 80 (unit not given)): 41% | % inhibition apPOL 180' (DRC-2, 180', concentration 20 (unit not given)): 37% | % inhibition Apo pol 5' (DRC-2; 5'; concentration 2.5): 30% | % inhibition Apo pol 5' (DRC-2; 5'; concentration 5): 7% | % inhibition Apo pol 5' (DRC-2; 5'; concentration 10): 33% | % inhibition Apo pol 5' (DRC-2; 5'; concentration 20): 37% | % inhibition Apo pol 5' (DRC-2; 5'; concentration 40): 37% | % inhibition Apo pol 5' (DRC-2; 5'; concentration 80): 22% | % inhibition Apol 40' (DRC-2; 40'; concentration 2.5): 30% | % inhibition Apol 40' (DRC-2; 40'; concentration 5): 4% | % inhibition Apol 40' (DRC-2; 40'; concentration 10): 32% | % inhibition Apol 40' (DRC-2; 40'; concentration 20): 41% | % inhibition Apol 40' (DRC-2; 40'; concentration 40): 48% | % inhibition Apol 40' (DRC-2; 40'; concentration 80): 32% | % inhibition ApPOL 90' (DRC-2; 90'; concentration 2.5): 25% | % inhibition ApPOL 90' (DRC-2; 90'; concentration 5): 1.89% | % inhibition ApPOL 90' (DRC-2; 90'; concentration 10): 28% | % inhibition ApPOL 90' (DRC-2; 90'; concentration 20): 40% | % inhibition ApPOL 90' (DRC-2; 90'; concentration 40): 53% | % inhibition ApPOL 90' (DRC-2; 90'; concentration 80): 41% | % inhibition apPOL 180' (DRC-2; 180'; concentration 2.5): 14% | % inhibition apPOL 180' (DRC-2; 180'; concentration 5): -1.88% | % inhibition apPOL 180' (DRC-2; 180'; concentration 10): 20% | % inhibition apPOL 180' (DRC-2; 180'; concentration 20): 37% | % inhibition apPOL 180' (DRC-2; 180'; concentration 40): 56% | % inhibition apPOL 180' (DRC-2; 180'; concentration 80): 49% | DNA Pol (primary screen value of the 186 hits; unit not given; 90 min, 10 µM): 68 | DNA Pol (primary screen value, head "DNA Pol", unit not given; 90 min, 10 µM): 68
